Reference: patent US20210009959A1, “METHODS FOR ENHANCING OSTEOGENIC DIFFERENTIATION USING VITAMIN D” (priority 2019, published 2021)

Tested on: human adipose stem cells (hASCs)
Test: Osteogenic gene expression of hASCs seeded on BCP20/80 scaffold
Type: cell-based
Settings: for RUNX2 gene expression, increase: 30 min incubation
Protocol: In one embodiment, a method of static culture of hASCs by pre-treatment with vitamin D3 (calcitriol) and attachment of hASCs to the scaffold used in one-step surgical procedure comprises the following steps. At one step, isolating hASCs as explained in FIG. 1. In an embodiment, the hASCs from three donors at passage 3 are used for further processing. As an optional step, the obtained hASCs are either or not incubated for a period of about 30 mins with low concentrated calcitriol of about 10 nM at room temperature.
At next step, the calcitriol treated hASCs are washed twice with Phosphate Buffered Saline (PBS) to remove calcitriol. Further, the washed hASCs are centrifuged and resuspended in Dulbecco's Minimum Essential Medium (DMEM) without any supplements. At another step, the resuspended cells are seeded on the scaffold and allowed to attach to the scaffolds for a period of about 30 minutes. At next step, the scaffolds with attached cells are transferred to 12-well plates with Costar® Transwell® containers (Corning Life Sciences, Lowell, Mass., USA) containing expansion medium (DMEM) supplemented with 10% Fetal Clone I (FCI), antibiotics (1% penicillin/streptomycin/fungizone (PSF)), 50 μM ascorbic acid (Merck, Darmstadt, Germany), and 10 mM β-glycerol phosphate (Merck, Darmstadt, Germany) (PLGA/β-TCP). At next step, the hASCs seeded scaffolds are incubated at 5% CO2 in a humidified incubator at predefined temperature of about 37° C. for a period of about 3 weeks.
Referring to FIGS. 8A to 8I, the effects of short and long calcitriol treatment on osteogenic gene expression of hASCs is disclosed, where hASCs are seeded in BCP scaffold. The stimulatory effect of 30 min calcitriol on osteogenic gene expression in hASCs seeded on BCP20/80 at day 21 is more noticeable than continuous calcitriol treatment. The 30 mins incubation with calcitriol increases the RUNX2 (early osteogenic marker) gene expression in hASCs by 3.6-fold after 2 weeks, and 5.7-fold after 3 weeks of culture compared to non-treated hASCs. FIGS. 8A to 8I exemplarily illustrate the effects of calcitriol treatment on osteogenic gene expression of hASCs.
The 30 minutes pre-treatment of hASCs with calcitriol increases VEGF189 gene expression, whereas in continuous calcitriol treatment, the VEGF189 gene expression reaches almost steady expression levels during the 3 weeks of culture. The VEGF189 gene expression in 30 minutes calcitriol pre-treated hASCs is increased by 1.5-fold at day 21, but it is decreased in continuous treatment by 0.6-fold compared to non-treated hASCs as shown in FIG. 8I.

[1] = continuous treatment, 3 weeks of culture

SMILES: C=C1/C(=C\C=C2/CCC[C@]3(C)[C@@H]([C@H](C)CCCC(C)(C)O)CC[C@@H]23)C[C@@H](O)C[C@@H]1O [calcitriol, 1,25-dihydroxyvitamin D3]
- ALP gene expression (30 min calcitriol, BCP20/80): upregulates
- RUNX2 gene expression, increase (after 2 weeks, vs non-treated hASCs): 3.6 fold
- RUNX2 gene expression, increase (after 3 weeks, vs non-treated hASCs): 5.7 fold
- CYP24 gene expression (30 min pre-treated cells): not expressed
- Ki-67 gene expression (30 min pre-treatment, 3 weeks of culture): decreases
- VDR gene expression (30 min pre-treatment, compared to continuous treatment, maximal stimulation at day 14): increases
- SPARC expression, increase (30 min pre-treatment, day 14): 2.1 fold
- VEGF189 gene expression, increase (30 min pre-treatment, day 21, vs non-treated hASCs): 1.5 fold
- OPN expression (30 min treatment, day 21): increases
- CYP24 gene expression [1]: remarkably increases
- Ki-67 gene expression [1]: no change
- RUNX2 expression, decrease (continuous treatment, after 2 weeks): 0.81 fold
- RUNX2 expression, increase (continuous treatment, after 3 weeks): 2.4 fold
- OPN gene expression (continuous treatment, day 4): upregulates
- SPARC expression, decrease (continuous treatment, day 14): 0.8 fold
- VEGF189 gene expression, decrease (continuous treatment, day 21, vs non-treated hASCs): 0.6 fold
- DMP1 gene expression (over about 3 weeks, treatment group not specified): gradual and insignificant increase
